Laboratory results taken from patent US7235678B2 (priority 2004, dated 2007).
Values after ≈ are worked out from the molar mass of the structure shown.

How the values were obtained:
Benjaminiella poitrasii = test: microbe, parasite or virus in culture; type: cell-based; settings: B. poitrassi, disc method; for MIC: 28° C.
Yarrowia lipolytica = test: Antibiotic inhibition assay using disc method, Y. lipolytica; type: cell-based; settings: for MIC: 28° C.
[1] = system: Candida albicans (5 isolates), Benjaminiella poitrasii and Yarrowia lipolytica; test: Antibiotic inhibition assay using disc method, all fungi tested together; type: cell-based; settings: for antifungal activity (in words): Candida albicans (five isolates), Benjaminiella poitrasii and Yarrowia lipolytica, compared with cycloheximide; for MIC: all five C. albicans isolates, B. poitrassi and Y. lipolytica
[2] = system: Candida albicans (5 isolates); test: Antibiotic inhibition assay using disc method, C. albicans isolates; type: cell-based
[3] = system: clinical isolate of C. albicans; settings: microtitre dilution broth assay; cited from earlier work
[4] = C. albicans, Isolate no. 1, disc method
[5] = C. albicans, Isolate no. 1, disc method, 28° C., 24 hours
[6] = C. albicans, Isolate no. 2, disc method
[7] = C. albicans, Isolate no. 2, disc method, 28° C., 24 hours
[8] = C. albicans, Isolate no. 3, disc method
[9] = C. albicans, Isolate no. 3, disc method, 28° C., 24 hours
[10] = C. albicans, Isolate no. 4, disc method
[11] = C. albicans, Isolate no. 4, disc method, 28° C., 24 hours
[12] = C. albicans, Isolate no. 5, disc method
[13] = C. albicans, Isolate no. 5, disc method, 28° C., 24 hours

For “N^1,N^3-Diethylenetriaminebis [Compound (2), N^1,N^3-Diethylenetriaminebis [deoxycholic acid amide]]”, the “Inhibition Zone” value (Benjaminiella poitrasii) was 0.6 cm, the MIC (Benjaminiella poitrasii; 24 hours) was 0.01763 µM and the “Inhibition Zone” value (Yarrowia lipolytica) was 0.8 cm. For the same compound, the MIC (Yarrowia lipolytica; 24 hours) was 0.0235 µM, the “antifungal activity (in words)” value [1] was “moderate antifungal activity” and the MIC [1] was 0.01 to 0.025 µM. The “Inhibition Zone” value [2, 4] was 0.9 cm, the MIC [2, 5] was 0.01175 µM and the “Inhibition Zone” value [2, 6] was 0.7 cm. For the same compound, the MIC [2, 7] was 0.01175 µM, the “Inhibition Zone” value [2, 8] was 1.0 cm and the MIC [2, 9] was 0.01175 µM. The “Inhibition Zone” value [2, 10] was 0.8 cm, the MIC [2, 11] was 0.01175 µM and the “Inhibition Zone” value [2, 12] was 0.9 cm. For the same compound, the MIC [2, 13] was 0.01763 µM.

With `C[C@@H]1C[C@@H]([C@H](O)CC2CC(=O)NC(=O)C2)C(=O)[C@@H](C)C1` [Cycloheximide, reference compound] the “Inhibition Zone” value (Benjaminiella poitrasii) was 1.45 cm, the MIC (Benjaminiella poitrasii; 24 hours) was 0.0712 µM (≈ 0.02 µg/mL) and the MIC (Benjaminiella poitrasii; Benjaminiella poitrasii, 24 h) was 0.071 µM (≈ 0.02 µg/mL). The “Inhibition Zone” value (Yarrowia lipolytica) was 0.9 cm, the MIC (Yarrowia lipolytica; 24 hours) was 0.1068 µM (≈ 0.03 µg/mL) and the MIC (Yarrowia lipolytica; Yarrowia lipolytica, 24 h) was 0.106 µM (≈ 0.0298 µg/mL). For the same compound, the MIC [3] was “greater than 900 nM”, the “Inhibition Zone” value [2, 4] was 1.0 cm and the “Inhibition Zone” value [2, 6] was 0.9 cm. The “Inhibition Zone” value [2, 8] was 0.9 cm, the “Inhibition Zone” value [2, 10] was 1.0 cm and the “Inhibition Zone” value [2, 12] was 0.8 cm. It also gave an MIC ([2]; Candida albicans, 24 h, C. albicans, Isolate no. 1, disc method, 28° C.) of 0.356 µM (≈ 0.1 µg/mL), an MIC ([2]; Candida albicans, 24 h, C. albicans, Isolate no. 2, disc method, 28° C.) of 0.539 µM (≈ 0.152 µg/mL) and an MIC ([2]; Candida albicans, 24 h, C. albicans, Isolate no. 3, disc method, 28° C.) of 0.267 µM (≈ 0.0751 µg/mL). It also gave an MIC ([2]; Candida albicans, 24 h, C. albicans, Isolate no. 4, disc method, 28° C.) of 0.534 µM (≈ 0.15 µg/mL), an MIC ([2]; Candida albicans, 24 h, C. albicans, Isolate no. 5, disc method, 28° C.) of 0.534 µM (≈ 0.15 µg/mL) and an MIC ([2]; Candida albicans, isolates of C. albicans, range over isolates) of 0.25 to 0.5 µM (≈ 0.0703 to 0.141 µg/mL).

With `CC(CCC(=O)NCCNCCNC(=O)CCC(C)C1CCC2C3C(O)CC4CC(O)CCC4(C)C3CC(O)C12C)C1CCC2C3C(O)CC4CC(O)CCC4(C)C3CC(O)C12C` (stereo not drawn) [Compound (1), N^1,N^3-Diethylenetriaminebis [cholic acid amide]] the “Inhibition Zone” value (Benjaminiella poitrasii) was 0.7 cm, the MIC (Benjaminiella poitrasii; 24 hours) was 0.01132 µM (≈ 0.01 µg/mL) and the “Inhibition Zone” value (Yarrowia lipolytica) was 0.9 cm. The MIC (Yarrowia lipolytica; 24 hours) was 0.01132 µM (≈ 0.01 µg/mL), the “antifungal activity (in words)” value [1] was “very good antifungal activity” and the MIC [1] was 0.01132 µM (≈ 0.01 µg/mL). For the same compound, the “minimum inhibitory concentration (MIC)” value ([1]; summary in description, fungi not specified) was “about 11.30 nM”, the “Inhibition Zone” value [2, 4] was 0.8 cm and the MIC [2, 5] was 0.01132 µM (≈ 0.01 µg/mL). For the same compound, the “Inhibition Zone” value [2, 6] was 0.8 cm, the MIC [2, 7] was 0.01132 µM (≈ 0.01 µg/mL) and the “Inhibition Zone” value [2, 8] was 0.8 cm. For the same compound, the MIC [2, 9] was 0.01132 µM (≈ 0.01 µg/mL), the “Inhibition Zone” value [2, 10] was 0.8 cm and the MIC [2, 11] was 0.01132 µM (≈ 0.01 µg/mL). For the same compound, the “Inhibition Zone” value [2, 12] was 0.8 cm and the MIC [2, 13] was 0.01132 µM (≈ 0.01 µg/mL).
